Measured values: US12624017B2, “Salt form of isoquinolinone type compound as rock inhibitor and preparation method therefor” (GUANGZHOU OCUSUN OPHTHALMIC BIOTECHNOLOGY CO., LTD., priority 2020, dated 2026)

Experiment: Toxicokinetic test: active compound in plasma after 14 days of eye drops
Assay type: in vivo, New Zealand white rabbits
Conditions: for Concentration of active compound in plasma: 8.0 mg/ml eye drops, after 14 days of consecutive administration
Description: The rate of production of active pharmaceutical ingredients in plasma and exposure amount of the active pharmaceutical ingredients were detected after 14 days.
Male New Zealand white rabbits, aged 3 to 6 months, weighted 2.0 to 5.0 kg, purchased from Pizhou Oriental Breeding Co., Ltd.
After 14 days of consecutive administration, blood samples were collected at 0 hours (before administration) and at 0.5, 1, 2, 4, 8 and 24 hours after administration in the group of compound of formula (I) (8.0 mg/ml) at 14-15 days. Approximately 0.8 mL of whole blood was collected from the ear artery or the hindlimb saphenous vein (or other suitable site) of animal subjected to the toxicokinetic test and placed in a labeled blood collection tube with dipotassium EDTA (K2EDTA) as an anticoagulant. Plasma was obtained by centrifugation at 3000 rpm and 2° C. to 8° C. for 10 min within 60 minutes after blood collection. All samples were quantitatively detected for the content of the administrated compound in the plasma of the experimental animal by a liquid chromatography-mass spectrometry coupling technology.

Compound: Cc1ccc(C(=O)OCn2cc(C)c3c(S(=O)(=O)N4CC[C@H](N)C4)cccc3c2=O)c(C)c1 [Compound of formula (I)]
- Concentration of active compound in plasma (Group 1, 0.00 h (before administration)): BQL
- Concentration of active compound in plasma (Group 1, 8.00 h): BQL
- Concentration of active compound in plasma (Group 1, 8.00 h, listed as compound of formula (I)): below the detection limit
- Concentration of active compound in plasma (Group 1, 24.0 h): BQL
- Concentration of active compound in plasma (Group 2, 0.00 h (before administration)): BQL
- Concentration of active compound in plasma (Group 2, 8.00 h): BQL
- Concentration of active compound in plasma (Group 2, 24.0 h): BQL
- System safety (conclusion) (high dose of 8 mg/mL, from plasma metabolite concentration): high system safety
